Measured values as given in patent publication US9695155B2, “Herbicidal substituted pyrimidinyloxy benzene compounds” (E. I. DU PONT DE NEMOURS AND COMPANY, priority 2013, dated 2017).

How the values were obtained:
nightshade = assay: Test C preemergence; format: in vivo, Solanum ptycanthum; conditions: for Nightshade plant response rating: preemergence, scale 0 (no effect) to 100 (complete control); for Plant response rating, Nightshade: Preemergence, 31 g ai/ha, scale 0 to 100, 0 no effect, 100 complete control
Excerpt: (§1) Seeds of plant species selected from blackgrass (Alopecurus myosuroides), Italian ryegrass (Lolium multiflorum), wheat, winter (winter wheat, Triticum aestivum), galium (catchweed bedstraw, Galium aparine), corn (Zea mays), large (Lg) crabgrass (Digitaria sanguinalis), giant foxtail (Setaria faberii), johnsongrass (Sorghum halepense), lambsquarters (Chenopodium album), morningglory (Ipomoea coccinea), yellow nutsedge (Cyperus esculentus), pigweed (Amaranthus retroflexus), ragweed (common ragweed, Ambrosia elatior), soybean (Glycine max), barnyardgrass (Echinochloa crus-galli), oilseed rape (Brassica napus), waterhemp (common waterhemp, Amaranthus rudis), kochia (Kochia scoparia), wild oat (Avena fatua), surinam grass (Brachiaria decumbens), foxtail, green (green foxtail, Setaria viridis), goosegrass (Eleusine indica), bromegrass, downy (downy bromegrass, Bromus tectorum), nightshade (eastern black nightshade, Solanum ptycanthum), cocklebur (common cocklebur, Xanthium strumarium), cupgrass, woolly (woolly cupgrass, Eriochloa villosa), bermudagrass (Cynodon dactylon), sunflower, (common oilseed sunflower, Helianthus annuus), Russian thistle (Salsola kali), and velvetleaf (Abutilon theophrasti) were planted into a blend of loam soil and sand and treated preemergence with test chemicals formulated in a non-phytotoxic solvent mixture which included a surfactant.
(§2) At the same time, plants selected from these crop and weed species and also barley, winter (winter barley, Hordeum vulgare), windgrass (Apera spica-venti), chickweed (common chickweed, Stellaria media), deadnettle (henbit deadnettle, Lamium amplexicaule), and canarygrass (littleseed canarygrass, Phalaris minor) were planted in pots containing Redi-Earth® planting medium (Scotts Company, 14111 Scottslawn Road, Marysville, Ohio 43041) comprising spaghnum peat moss, vermiculite, wetting agent and starter nutrients and treated with postemergence applications of test chemicals formulated in the same manner. Plants ranged in height from 2 to 18 cm (1- to 4-leaf stage) for postemergence treatments. Treated plants and controls were maintained in a greenhouse for 13 to 15 days, after which time all species were compared to controls and visually evaluated. Plant response ratings, summarized in Table C, are based on a scale of 0 to 100 where 0 is no effect and 100 is complete control. A dash (-) response means no test result.

sunflower = assay: Test C preemergence; format: in vivo, Helianthus annuus; conditions: for Sunflower plant response rating: preemergence, scale 0 (no effect) to 100 (complete control); for Plant response rating, Sunflower: Preemergence, 31 g ai/ha, scale 0 to 100, 0 no effect, 100 complete control
Excerpt: as §1, §2

surinam grass = assay: Test C postemergence; format: in vivo, Brachiaria decumbens; conditions: for Plant response rating (0 to 100), Surinam Grass: postemergence; for Plant response rating, Surinam Grass: Postemergence, scale 0 to 100 (0 no effect, 100 complete control)
Excerpt: as §1, §2

canarygrass = assay: Test D preemergence; format: in vivo, Phalaris minor; conditions: Phalaris minor, pre-emergence
Excerpt: (§3) Seeds of plant species selected from bluegrass (annual bluegrass, Poa annua), blackgrass (Alopecurus myosuroides), canarygrass (littleseed canarygrass, Phalaris minor), chickweed (common chickweed, Stellaria media), galium (catchweed bedstraw, Galium aparine), bromegrass, downy (downy bromegrass, Bromus tectorum), field poppy (Papaver rhoeas), field violet (Viola arvensis), green foxtail (Setaria viridis), deadnettle (henbit deadnettle, Lamium amplexicaule), Italian ryegrass (Lolium multiflorum), kochia (Kochia scoparia), lambsquarters (Chenopodium album), oilseed rape (Brassica napus), pigweed (Amaranthus retroflexus), chamomile (scentless chamomile, Matricaria inodora), Russian thistle (Salsola kali), speedwell (bird's-eye speedwell, Veronica persica), spring barley (Hordeum vulgare), spring wheat (Triticum aestivum), wild buckwheat (Polygonum convolvulus), wild mustard (Sinapis arvensis), wild oat (Avena fatua), wild radish (Raphanus raphanistrum), windgrass (Apera spica-venti), winter barley (Hordeum vulgare), and winter wheat (Triticum aestivum) were planted into a silt loam soil and treated preemergence with test chemicals formulated in a non-phytotoxic solvent mixture which included a surfactant.
(§4) At the same time, these species were planted in pots containing Redi-Earth® planting medium (Scotts Company, 14111 Scottslawn Road, Marysville, Ohio 43041) comprising spaghnum peat moss, vermiculite, wetting agent and starter nutrients and treated with postemergence applications of the test chemicals formulated in the same manner. Plants ranged in height from 2 to 18 cm (1- to 4-leaf stage). Treated plants and controls were maintained in a controlled growth environment for 7 to 21 days after which time all species were compared to controls and visually evaluated. Plant response ratings, summarized in Table D, are based on a scale of 0 to 100 where 0 is no effect and 100 is complete control. A dash (-) response means no test result.

Russian thistle [1] = assay: Test D preemergence; format: in vivo, Salsola kali; design: key: 0 = no effect, 100 = complete control
Excerpt: as §3, §4

field poppy = assay: Test D postemergence; format: in vivo, Papaver rhoeas; conditions: Papaver rhoeas, post-emergence
Excerpt: as §3, §4

Russian thistle [2] = assay: Test D postemergence; format: in vivo, Salsola kali
How it was run: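 In a controlled growth environment, treated and control plants were held 7 to 21 days, then compared visually. Damage was scored 0–100, where 100 means complete control. Sprays contained surfactant in a non-phytotoxic solvent; post-applied plants were at the 1- to 4-leaf stage.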

Compound | Nightshade plant response rating (nightshade; 62 g ai/ha) | Nightshade plant response rating (nightshade; 125 g ai/ha) | Nightshade plant response rating (nightshade; 250 g ai/ha) | Plant response rating, Nightshade (nightshade) | Sunflower plant response rating (sunflower; 62 g ai/ha) | Sunflower plant response rating (sunflower; 125 g ai/ha) | Sunflower plant response rating (sunflower; 250 g ai/ha) | Plant response rating, Sunflower (sunflower) | Plant response rating (0 to 100), Surinam Grass (surinam grass; 125 g ai/ha) | Plant response rating, Surinam Grass (surinam grass; 31 g ai/ha, 13 to 15 days) | Plant response rating, Surinam Grass (surinam grass; 62 g ai/ha) | other results
Clc1cnc(Oc2ccccc2-n2cc(Br)cn2)nc1 [Compound 7, 2-[2-(4-bromo-1H-pyrazol-1-yl)phenoxy]-5-chloropyrimidine] | 95 | 95 | 98 | 80 | 10 | 10 | 10 | 0 | 30 | 15 | 20 | pest or weed control at 16 g/ha (canarygrass; 16 g ai/ha, scale 0 (no effect) to 100 (complete control), read-out: Plant response rating, Canarygrass): 0%; pest or weed control at 31 g/ha (canarygrass; 31 g ai/ha, scale 0-100, read-out: Plant response rating, Canarygrass): 0%; pest or weed control at 62 g/ha (canarygrass; 62 g ai/ha, scale 0-100, read-out: Plant response rating, Canarygrass): 0%; pest or weed control at 125 g/ha (canarygrass; 125 g ai/ha, scale 0-100, read-out: Plant response rating, Canarygrass): 0%; pest or weed control at 250 g/ha (canarygrass; 250 g ai/ha, scale 0-100, read-out: Plant response rating, Canarygrass): 25%; Plant response rating, Russian Thistle (Russian thistle [1]; 31 g ai/ha, scale 0 (no effect) to 100 (complete control)): 0; Plant response rating, Russian Thistle (Russian thistle [1]; 62 g ai/ha, scale 0-100): 0; Plant response rating, Russian Thistle (Russian thistle [1]; 125 g ai/ha, scale 0-100): 0; Plant response rating, Russian Thistle (Russian thistle [1]; 250 g ai/ha, scale 0-100): 0; pest or weed control at 16 g/ha (field poppy; 16 g ai/ha, scale 0-100, read-out: Plant response rating, Field Poppy): 10%; pest or weed control at 31 g/ha (field poppy; 31 g ai/ha, scale 0 to 100 (0 no effect, 100 complete control), read-out: Plant response rating, Field Poppy): 20%; pest or weed control at 62 g/ha (field poppy; 62 g ai/ha, scale 0 to 100 (0 no effect, 100 complete control), read-out: Plant response rating, Field Poppy): 50%; pest or weed control at 125 g/ha (field poppy; 125 g ai/ha, scale 0 to 100 (0 no effect, 100 complete control), read-out: Plant response rating, Field Poppy): 50%; pest or weed control at 250 g/ha (field poppy; 250 g ai/ha, scale 0 to 100 (0 no effect, 100 complete control), read-out: Plant response rating, Field Poppy): 60%; Plant response rating, Russian Thistle (Russian thistle [2]; 16 g ai/ha, scale 0-100): 0; Plant response rating, Russian Thistle (Russian thistle [2]; 31 g ai/ha, scale 0 to 100 (0 no effect, 100 complete control)): 0; Plant response rating, Russian Thistle (Russian thistle [2]; 62 g ai/ha, scale 0 to 100 (0 no effect, 100 complete control)): 30; Plant response rating, Russian Thistle (Russian thistle [2]; 125 g ai/ha, scale 0 to 100 (0 no effect, 100 complete control)): 30; Plant response rating, Russian Thistle (Russian thistle [2]; 250 g ai/ha, scale 0 to 100 (0 no effect, 100 complete control)): 70
FC(F)(F)c1cnn(-c2ccccc2Oc2ncc(Cl)cn2)c1 [Compound 16] | 65 | 80 | 98 | 20 | 0 | 0 | 0 | 0 | 40 | 10 | 15 | Plant response rating (0 to 100), Surinam Grass (surinam grass; 250 g ai/ha): 40
